From patent US20230085307A1, “PYRIDAZINONE COMPOUND AND HERBICIDE” (NISSAN CHEMICAL CORPORATION, priority 2019, published 2023)

Columns and labels:
[1] = tested on: blackgrass; assay: Test Example 4: herbicidal effect by soil treatment (Table 19, symbol J); type: in vivo, blackgrass (Alopecurus myosuroides)
How it was run: (§1)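 Step 1: sow seeds in sterilized diluvial soil, cover ~1.5 cm. Step 2: spray diluted emulsion onto soil surface at predetermined rate. Step 3: greenhouse, 25–30° C, three weeks. Step 4: grade effect on each plant by earlier criteria.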

[2] = tested on: wild oat; assay: Test Example 4: herbicidal effect by soil treatment (Table 19, symbol I); type: in vivo, wild oat (Avena fatua)
How it was run: as §1

[3] = tested on: green foxtail; assay: Test Example 5: herbicidal effect by foliage application, plastic box (Table 20, symbol G); type: in vivo, green foxtail (Setaria viridis); conditions: foliage application, three weeks after application
How it was run: (§2)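 Foliar spray test: emulsion formulation diluted in water to a set application rate, sprayed onto 14-day-old plants raised in diluvial soil at 25° C to 30° C under glass. Both herbicidal effect and crop effect rated visually three weeks later.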

[4] = tested on: Italian ryegrass; assay: Test Example 5: herbicidal effect by foliage application, plastic box (Table 20, symbol K); type: in vivo, Italian ryegrass (Lolium multiflorum); conditions: foliage application, three weeks after application
How it was run: as §2

[5] = tested on: windgrass; assay: Test Example 4: herbicidal effect by soil treatment (Table 19, symbol L); type: in vivo, windgrass (Apera spica-venti)
How it was run: as §1

[6] = tested on: green foxtail; assay: Test Example 4: herbicidal effect by soil treatment (Table 19, symbol G); type: in vivo, green foxtail (Setaria viridis)
How it was run: as §1

[7] = tested on: windgrass; assay: Test Example 5: herbicidal effect by foliage application, plastic box (Table 20, symbol L); type: in vivo, windgrass (Apera spica-venti); conditions: foliage application, three weeks after application
How it was run: as §2

[8] = tested on: Italian ryegrass; assay: Test Example 4: herbicidal effect by soil treatment (Table 19, symbol K); type: in vivo, Italian ryegrass (Lolium multiflorum)
How it was run: as §1

[9] = tested on: lambsquarters; assay: Test Example 5: herbicidal effect by foliage application, plastic box (Table 20, symbol O); type: in vivo, lambsquarters (Chenopodium album); conditions: foliage application, three weeks after application
How it was run: as §2

[10] = tested on: barnyard grass; assay: Test Example 5: herbicidal effect by foliage application, plastic box (Table 20, symbol H); type: in vivo, barnyard grass (Echinochloa crus-galli); conditions: foliage application, three weeks after application
How it was run: as §2

[11] = tested on: redroot pigweed; assay: Test Example 4: herbicidal effect by soil treatment (Table 19, symbol N); type: in vivo, redroot pigweed (Amaranthus retroflexus)
How it was run: as §1

[12] = tested on: lambsquarters; assay: Test Example 4: herbicidal effect by soil treatment (Table 19, symbol O); type: in vivo, lambsquarters (Chenopodium album)
How it was run: as §1

[13] = tested on: barnyard grass; assay: Test Example 3: herbicidal effect by foliage application, Wagner pot (Table 18, symbol H); type: in vivo, barnyard grass (Echinochloa crus-galli)
How it was run: (§3)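 Plants were sown in alluvial soil held under 0.1–0.5 cm standing water and grown 14 days in a greenhouse at 25–30 °C. An emulsifiable formulation, water-diluted to the set dose, was then sprayed onto the foliage, and effects were scored three weeks later using previously defined criteria.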

[14] = tested on: velvetleaf; assay: Test Example 4: herbicidal effect by soil treatment (Table 19, symbol M); type: in vivo, velvetleaf (Abutilon theophrasti)
How it was run: as §1

[15] = tested on: persian speedwell; assay: Test Example 4: herbicidal effect by soil treatment (Table 19, symbol R); type: in vivo, Persian speedwell (Veronica persica)
How it was run: as §1

[16] = tested on: rice flat sedge; assay: Test Example 3: herbicidal effect by foliage application, Wagner pot (Table 18, symbol E); type: in vivo, rice flat sedge (Cyperus iria)
How it was run: as §3

[17] = tested on: chickweed; assay: Test Example 4: herbicidal effect by soil treatment (Table 19, symbol P); type: in vivo, common chickweed (Stellaria media)
How it was run: as §1

[18] = tested on: wild oat; assay: Test Example 5: herbicidal effect by foliage application, plastic box (Table 20, symbol I); type: in vivo, wild oat (Avena fatua); conditions: foliage application, three weeks after application
How it was run: as §2

[19] = tested on: barnyard grass; assay: Test Example 4: herbicidal effect by soil treatment (Table 19, symbol H); type: in vivo, barnyard grass (Echinochloa crus-galli)
How it was run: as §1

[20] = tested on: persian speedwell; assay: Test Example 5: herbicidal effect by foliage application, plastic box (Table 20, symbol R); type: in vivo, Persian speedwell (Veronica persica); conditions: foliage application, three weeks after application
How it was run: as §2

[21] = tested on: southern crabgrass; assay: Test Example 5: herbicidal effect by foliage application, plastic box (Table 20, symbol F); type: in vivo, southern crabgrass (Digitaria ciliaris); conditions: foliage application, three weeks after application
How it was run: as §2

[22] = tested on: Chinese sprangletop; assay: Test Example 3: herbicidal effect by foliage application, Wagner pot (Table 18, symbol D); type: in vivo, chinese sprangletop (Leptochloa chinensis)
How it was run: as §3

[23] = tested on: velvetleaf; assay: Test Example 5: herbicidal effect by foliage application, plastic box (Table 20, symbol M); type: in vivo, velvetleaf (Abutilon theophrasti); conditions: foliage application, three weeks after application
How it was run: as §2

[24] = tested on: southern crabgrass; assay: Test Example 4: herbicidal effect by soil treatment (Table 19, symbol F); type: in vivo, southern crabgrass (Digitaria ciliaris)
How it was run: as §1

[25] = tested on: chickweed; assay: Test Example 5: herbicidal effect by foliage application, plastic box (Table 20, symbol P); type: in vivo, common chickweed (Stellaria media); conditions: foliage application, three weeks after application
How it was run: as §2

[26] = tested on: redroot pigweed; assay: Test Example 5: herbicidal effect by foliage application, plastic box (Table 20, symbol N); type: in vivo, redroot pigweed (Amaranthus retroflexus); conditions: foliage application, three weeks after application
How it was run: as §2

[27] = tested on: blackgrass; assay: Test Example 5: herbicidal effect by foliage application, plastic box (Table 20, symbol J); type: in vivo, blackgrass (Alopecurus myosuroides); conditions: foliage application, three weeks after application
How it was run: as §2

[28] = amount of applied herbicide 320 g/ha

CON=C(C)c1ccc(-c2sc3cc(F)ccc3c2-c2c(O)c(C)nn(C)c2=O)cc1 [3-017]
herbicidal effect, J: blackgrass [1, 28]: 0 (Herbicidal rate of 5% or less (almost no effect)) | herbicidal effect, I: wild oat [2, 28]: 0 (Herbicidal rate of 5% or less (almost no effect)) | G: green foxtail, herbicidal effect grade ([3]; 320 g/ha): 5 (Herbicidal rate of 90% or more (almost completely withered)) | K: Italian ryegrass, herbicidal effect grade ([4]; 320 g/ha): 4 (Herbicidal rate of 70% or more and less than 90%) | herbicidal effect, L: windgrass [5, 28]: 0 (Herbicidal rate of 5% or less (almost no effect)) | herbicidal effect, G: green foxtail [6, 28]: 0 (Herbicidal rate of 5% or less (almost no effect)) | L: windgrass, herbicidal effect grade ([7]; 320 g/ha): 2 (Herbicidal rate of 20% or more and less than 40%) | herbicidal effect, K: Italian ryegrass [8, 28]: 3 (Herbicidal rate of 40% or more and less than 70%) | O: lambsquarters, herbicidal effect grade ([9]; 320 g/ha): 5 (Herbicidal rate of 90% or more (almost completely withered)) | H: barnyard grass, herbicidal effect grade ([10]; 320 g/ha): 2 (Herbicidal rate of 20% or more and less than 40%) | herbicidal effect, N: redroot pigweed [11, 28]: 5 (Herbicidal rate of 90% or more (almost completely withered)) | herbicidal effect, O: lambsquarters [12, 28]: 4 (Herbicidal rate of 70% or more and less than 90%) | herbicidal effect on H: barnyard grass [13, 28]: 3 (Herbicidal rate of 40% or more and less than 70%) | herbicidal effect, M: velvetleaf [14, 28]: 0 (Herbicidal rate of 5% or less (almost no effect)) | herbicidal effect, R: persian speedwell [15, 28]: 3 (Herbicidal rate of 40% or more and less than 70%) | herbicidal effect on E: rice flat sedge [16, 28]: 0 (Herbicidal rate of 5% or less (almost no effect)) | herbicidal effect, P: chickweed [17, 28]: 1 (Herbicidal rate of 5% or more and less than 20%) | I: wild oat, herbicidal effect grade ([18]; 320 g/ha): 1 (Herbicidal rate of 5% or more and less than 20%) | herbicidal effect, H: barnyard grass [19, 28]: 0 (Herbicidal rate of 5% or less (almost no effect)) | R: persian speedwell, herbicidal effect grade ([20]; 320 g/ha): 5 (Herbicidal rate of 90% or more (almost completely withered)) | F: southern crabgrass, herbicidal effect grade ([21]; 320 g/ha): 3 (Herbicidal rate of 40% or more and less than 70%) | herbicidal effect on D: Chinese sprangletop [22, 28]: 0 (Herbicidal rate of 5% or less (almost no effect)) | M: velvetleaf, herbicidal effect grade ([23]; 320 g/ha): 3 (Herbicidal rate of 40% or more and less than 70%) | herbicidal effect, F: southern crabgrass [24, 28]: 0 (Herbicidal rate of 5% or less (almost no effect)) | P: chickweed, herbicidal effect grade ([25]; 320 g/ha): 5 (Herbicidal rate of 90% or more (almost completely withered)) | N: redroot pigweed, herbicidal effect grade ([26]; 320 g/ha): 5 (Herbicidal rate of 90% or more (almost completely withered)) | J: blackgrass, herbicidal effect grade ([27]; 320 g/ha): 3 (Herbicidal rate of 40% or more and less than 70%)

COc1nn(C)c(=O)c(-c2c(-c3ccc(OC(F)(F)F)cc3)sc3ccccc23)c1O [1-162]
J: blackgrass, herbicidal effect rating ([1]; AAH 80 g/ha): 0 (Herbicidal rate of 5% or less (almost no effect)) | I: wild oat, herbicidal effect rating ([2]; AAH 80 g/ha): 0 (Herbicidal rate of 5% or less (almost no effect)) | G: green foxtail, herbicidal effect ([3]; AAH 80 g/ha): 0 (Herbicidal rate of 5% or less (almost no effect)) | K: Italian ryegrass, herbicidal effect ([4]; AAH 80 g/ha): 0 (Herbicidal rate of 5% or less (almost no effect)) | L: windgrass, herbicidal effect rating ([5]; AAH 80 g/ha): 0 (Herbicidal rate of 5% or less (almost no effect)) | G: green foxtail, herbicidal effect rating ([6]; AAH 80 g/ha): 0 (Herbicidal rate of 5% or less (almost no effect)) | L: windgrass, herbicidal effect ([7]; AAH 80 g/ha): 0 (Herbicidal rate of 5% or less (almost no effect)) | K: Italian ryegrass, herbicidal effect rating ([8]; AAH 80 g/ha): 0 (Herbicidal rate of 5% or less (almost no effect)) | O: lambsquarters, herbicidal effect ([9]; AAH 80 g/ha): 3 (Herbicidal rate of 40% or more and less than 70%) | H: barnyard grass, herbicidal effect ([10]; AAH 80 g/ha): 0 (Herbicidal rate of 5% or less (almost no effect)) | N: redroot pigweed, herbicidal effect rating ([11]; AAH 80 g/ha): 1 (Herbicidal rate of 5% or more and less than 20%) | O: lambsquarters, herbicidal effect rating ([12]; AAH 80 g/ha): 4 (Herbicidal rate of 70% or more and less than 90%) | herbicidal effect on H (barnyard grass), rating 0-5 ([13]; 80 g/ha): 4 (Herbicidal rate of 70% or more and less than 90%) | M: velvetleaf, herbicidal effect rating ([14]; AAH 80 g/ha): 0 (Herbicidal rate of 5% or less (almost no effect)) | R: persian speedwell, herbicidal effect rating ([15]; AAH 80 g/ha): 0 (Herbicidal rate of 5% or less (almost no effect)) | herbicidal effect on E (rice flat sedge), rating 0-5 ([16]; 80 g/ha): 5 (Herbicidal rate of 90% or more (almost completely withered)) | P: chickweed, herbicidal effect rating ([17]; AAH 80 g/ha): 2 (Herbicidal rate of 20% or more and less than 40%) | I: wild oat, herbicidal effect ([18]; AAH 80 g/ha): 0 (Herbicidal rate of 5% or less (almost no effect)) | H: barnyard grass, herbicidal effect rating ([19]; AAH 80 g/ha): 0 (Herbicidal rate of 5% or less (almost no effect)) | R: persian speedwell, herbicidal effect ([20]; AAH 80 g/ha): 5 (Herbicidal rate of 90% or more (almost completely withered)) | F: southern crabgrass, herbicidal effect ([21]; AAH 80 g/ha): 0 (Herbicidal rate of 5% or less (almost no effect)) | herbicidal effect on D (Chinese sprangletop), rating 0-5 ([22]; 80 g/ha): 3 (Herbicidal rate of 40% or more and less than 70%) | M: velvetleaf, herbicidal effect ([23]; AAH 80 g/ha): 3 (Herbicidal rate of 40% or more and less than 70%) | F: southern crabgrass, herbicidal effect rating ([24]; AAH 80 g/ha): 0 (Herbicidal rate of 5% or less (almost no effect)) | P: chickweed, herbicidal effect ([25]; AAH 80 g/ha): 5 (Herbicidal rate of 90% or more (almost completely withered)) | N: redroot pigweed, herbicidal effect ([26]; AAH 80 g/ha): 4 (Herbicidal rate of 70% or more and less than 90%) | J: blackgrass, herbicidal effect ([27]; AAH 80 g/ha): 0 (Herbicidal rate of 5% or less (almost no effect))
